Data published in ChEMBL document CHEMBL5727340, “Substituted nucleoside derivatives useful as anticancer agents” (2019).

Experiment: PRMT5 assay: Compounds were solubilized in DMSO and serially diluted, using 3-fold dilutions, into 100% DMSO at a concentration 50-fold greater than the desired assay concentration. Following dilution, 1 ul was added to an empty 96-well microtiter plate. PRMT5/MEP50 protein complex was combined with H4(1-21) peptide ([…]) in PRMT5 assay buffer (50 mM Tris pH 8.5, 50 mM NaCl, 5 mM MgCl2, 1 mM EDTA, 1 mM TCEP) and 44 ul was added to the microtiter plate containing compound. S-Adenosyl-L-methionine (SAM) was prepared by combining 3H labelled SAM with unlabelled SAM in PRMT5 assay buffer such that the final SAM concentration was 10 uM and the specific activity was 0.2 uCi/ul. The reaction was initiated by adding 5 ul of SAM stock to the microtiter plate. The final reaction conditions were 10 nM PRMT5/MEP50 complex, 200 nM peptide and 1 uM SAM. Following a 25 minute incubation at room temperature, the reaction was stopped with the addition of 100 uL of 20% TCA. The 3H-peptide product was captured using a 96-well filter plate (MSIPN4B, Millipore) and washed 5 times with PBS buffer. Scintillation fluid (100 ul) was added to the dried filter plate and counted in a liquid scintillation counter. IC50 values were determined by fitting the data to the standard 4-parameter dose response equation using Pfizer proprietary software.

Compound | IC50 [µM]
Cc1ncnc2c1ccn2[C@@H]1O[C@@H](C(C)O)[C@H]2OC(C)(C)O[C@H]21 (some centres undefined) | 1.73
Cc1ncnc2c1ccn2[C@@H]1O[C@H]([C@@H](O)c2cccc(F)c2)[C@@H](O)[C@H]1O | 2.64
Cc1ncnc2c1ccn2[C@@H]1O[C@@H](C(C)(C)O)[C@H]2OC(C)(C)O[C@H]21 | 3.24
Cc1ncnc2c1ccn2[C@@H]1O[C@H]([C@H](O)c2ccc3ccn(C)c3c2)[C@@H](O)[C@H]1O | 0.01
